Assay results published in patent US20050245399A1, “Pyrazole derivatives as herbicidal compositions containing them” (ISHIHARA SANGYO KAISHA, LTD., priority 2004, published 2005).

Key:
Type in all cases: in vivo
[1] = test system: barnyardgrass (Echinochloa crus-galli L.), ECHCG; assay: Test Example 2 post-emergence (foliage treatment) herbicidal activity, ECHCG
Outline: (§1)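 Post-emergence, upland soil pots; leaf stage at spray: ECHCG 1.1-2.1 / DIGSA 1.0-2.0 / AMARE 0.1-1.5 / ORYSA 1.0-2. WP or EC formulation, set active ingredient rate, 500 L/ha water + 0.1% v/v spreader. Visual rating at d20-23, % control 0-100.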

[2] = test system: crabgrass (Digitaria sanguinalis L.), DIGSA; assay: Test Example 2 post-emergence (foliage treatment) herbicidal activity, DIGSA
Outline: as §1

[3] = test system: green foxtail (Setaria viridis L.), SETVI; assay: Test Example 2 post-emergence (foliage treatment) herbicidal activity, SETVI
Outline: (§2)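 A small sprayer delivered the diluted WP or EC formulation (500 L/ha water, 0.1% v/v spreader) over emerged seedlings in upland soil pots. Damage relative to untreated plants was graded visually from 0 to 100% three weeks or so later (days 20-23).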

[4] = test system: redroot pigweed (Amaranthus retroflexus L.), AMARE; assay: Test Example 2 post-emergence (foliage treatment) herbicidal activity, AMARE
Outline: as §1

[5] = test system: prickly sida (Sida spinosa L.), SIDSP; assay: Test Example 2 post-emergence (foliage treatment) herbicidal activity, SIDSP
Outline: as §2

[6] = test system: velvetleaf (Abutilon theophrasti), ABUTH; assay: Test Example 2 post-emergence (foliage treatment) herbicidal activity, ABUTH
Outline: as §2

[7] = test system: rice (Oryza sativa L.), ORYSA; assay: Test Example 2 post-emergence (foliage treatment) herbicidal activity, ORYSA
Outline: as §1

[8] = test system: wheat (Triticum aestivum L.), TRZAX; assay: Test Example 2 post-emergence (foliage treatment) herbicidal activity, TRZAX
Outline: as §2

[9] = test system: corn (Zea mays L.), ZEAMX; assay: Test Example 2 post-emergence (foliage treatment) herbicidal activity, ZEAMX
Outline: as §2

[10] = test system: soybean (Glycine max Merr.), GLXMA; assay: Test Example 2 post-emergence (foliage treatment) herbicidal activity, GLXMA
Outline: as §2

[11] = test system: barnyardgrass (Echinochiloa oryzicola: ECHOR); assay: Test Example 3 water application herbicidal activity (paddy), ECHOR; settings: 63 g a.i./ha, water application under submerged condition at 0.5 leaf stage, visually observed 14th day after application; 0 = untreated control, 100 = complete kill
Description: (§3) Paddy field soil was put into a 1/1,000,000 ha pot and seeds of barnyardgrass (Echinochiloa oryzicola: ECHOR) and japanese bulrush (Scirpus juncoides: SCPJO) were sown and slightly covered with soil. Then the pot was left to stand still in a greenhouse in a state where the depth of flooding water was from 0.5 to 1 cm, and one day later, tubers of japanese ribbon wapato (Sagittaria pygmaea: SA GPY) were planted. Thereafter, the depth of flooding water was maintained at a level of from 3 to 4 cm, and when barnyardgrass and japanese bulrush reached a 0.5 leaf stage, an aqueous diluted solution of a wettable powder or emulsifiable concentrate having the compound of the present invention formulated in accordance with a usual formulation method, was uniformly applied under submerged condition by a pipette so that the dose of the active ingredient would be at a predetermined level. On the other hand, paddy filed soil was put into a 1/1,000,000 ha pot and puddled and leveled, and the depth of flooding water was from 3 to 4 cm. One day later, rice (Oryza sativa L.: ORYSA) of 2 leaf stage was transplanted in a depth of 3 cm. On the 4th day after the transplantation, the compound of the present invention was applied in the same manner as described above. On the 14th day after the application of the herbicide, the growth of barnyardgrass, japanese burlush and japanese ribbon wapato was visually observed and on the 21st day after the application of the herbicide, the growth of rice was visually observed, and the herbicidal effects were evaluated by growth controlling degrees (%) ranging from 0 (equivalent to the untreated control) to 100 (complete kill), whereby the results shown in Table 6, were obtained. Compound Nos. in Table 6 correspond to Compound Nos. in Table 1 and 2 given hereinbefore.

[12] = test system: japanese bulrush (Scirpus juncoides: SCPJO); assay: Test Example 3 water application herbicidal activity (paddy), SCPJO; settings: 63 g a.i./ha, water application under submerged condition at 0.5 leaf stage, visually observed 14th day after application; 0 = untreated control, 100 = complete kill
Description: as §3

[13] = test system: japanese ribbon wapato (Sagittaria pygmaea: SA GPY); assay: Test Example 3 water application herbicidal activity (paddy), SAGPY; settings: 63 g a.i./ha, water application under submerged condition, tubers planted, visually observed 14th day after application; 0 = untreated control, 100 = complete kill
Description: as §3

[14] = test system: rice (Oryza sativa L.: ORYSA); assay: Test Example 3 water application herbicidal activity (paddy), transplanted rice ORYSA; settings: 63 g a.i./ha, water application 4th day after transplantation of 2 leaf stage rice, visually observed 21st day after application; 0 = untreated control, 100 = complete kill
Description: as §3

[15] = test system: barnyardgrass (Echinochloa crus-galli L.): ECHCG; assay: Test Example 1 pre-emergence herbicidal activity, ECHCG; settings: Rate 63 g a.i./ha, visually observed 20th to 23rd day after application
Outline: (§4)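 Read-out: visual growth control (%, 0–100, 100 = complete kill) assessed 20 to 23 days post-treatment. Compound was applied pre-emergence by small sprayer, one day after sowing into upland soil pots, in 500 L/ha water.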

[16] = test system: crabgrass (Digitaria sanguinalis L.): DIGSA; assay: Test Example 1 pre-emergence herbicidal activity, DIGSA; settings: Rate 63 g a.i./ha, visually observed 20th to 23rd day after application
Outline: as §4

[17] = test system: green foxtail (Setaria viridis L.): SETVI; assay: Test Example 1 pre-emergence herbicidal activity, SETVI; settings: Rate 63 g a.i./ha, visually observed 20th to 23rd day after application
Outline: as §4

[18] = test system: redroot pigweed (Amaranthus retroflexus L.): AMARE; assay: Test Example 1 pre-emergence herbicidal activity, AMARE; settings: Rate 63 g a.i./ha, visually observed 20th to 23rd day after application
Outline: as §4

[19] = test system: prickly sida (Sida spinosa L.): SEDSP; assay: Test Example 1 pre-emergence herbicidal activity, SIDSP; settings: Rate 63 g a.i./ha, visually observed 20th to 23rd day after application
Outline: as §4

[20] = test system: velvetleaf (Abutilon theophrasti): ABUTH; assay: Test Example 1 pre-emergence herbicidal activity, ABUTH; settings: Rate 63 g a.i./ha, visually observed 20th to 23rd day after application
Outline: as §4

[21] = test system: rice (Oryza sativa L.): ORYSA; assay: Test Example 1 pre-emergence herbicidal activity, ORYSA; settings: Rate 63 g a.i./ha, visually observed 20th to 23rd day after application
Outline: as §4

[22] = test system: wheat (Triticum aestivum L.): TRZAX; assay: Test Example 1 pre-emergence herbicidal activity, TRZAX; settings: Rate 63 g a.i./ha, visually observed 20th to 23rd day after application
Outline: as §4

[23] = test system: corn (Zea mays L.): ZEAMX; assay: Test Example 1 pre-emergence herbicidal activity, ZEAMX; settings: Rate 63 g a.i./ha, visually observed 20th to 23rd day after application
Outline: as §4

[24] = test system: soybean (Glycine max Merr.): GLXMA; assay: Test Example 1 pre-emergence herbicidal activity, GLXMA; settings: Rate 63 g a.i./ha, visually observed 20th to 23rd day after application
Outline: as §4

SMILES | growth controlling degrees (%) ECHOR [11] [%] | growth controlling degrees (%) SCPJO [12] [%] | growth controlling degrees (%) SAGPY [13] [%] | growth controlling degrees (%) ORYSA [14] [%] | Pre-emergence Herbicidal Activity ECHCG (growth controlling degree) [15] [%] | Pre-emergence Herbicidal Activity DIGSP (growth controlling degree) [16] [%] | Pre-emergence Herbicidal Activity SETVI (growth controlling degree) [17] [%] | Pre-emergence Herbicidal Activity AMARE (growth controlling degree) [18] [%] | Pre-emergence Herbicidal Activity SIDSP (growth controlling degree) [19] [%] | Pre-emergence Herbicidal Activity ABUTH (growth controlling degree) [20] [%] | Pre-emergence Herbicidal Activity ORYSA (growth controlling degree) [21] [%] | Pre-emergence Herbicidal Activity TRZAX (growth controlling degree) [22] [%] | Pre-emergence Herbicidal Activity ZEAMX (growth controlling degree) [23] [%] | Pre-emergence Herbicidal Activity GLXMA (growth controlling degree) [24] [%] | growth controlling degree, ECHCO ([1]; 63 g a.i./ha) [%] | growth controlling degree, DIGSP ([2]; 63 g a.i./ha) [%] | growth controlling degree, SIDSP ([5]; 63 g a.i./ha) [%] | growth controlling degree, ABUTH ([6]; 63 g a.i./ha) [%] | growth controlling degree, ORYSA ([7]; 63 g a.i./ha) [%] | growth controlling degree, TRZAX ([8]; 63 g a.i./ha) [%] | other results
COc1c(Cl)cc(F)c(-c2nn(C)c(OC(F)F)c2Cl)c1[N+](=O)[O-] [Compound 2-21, 4-chloro-3-(4-chloro-6-fluoro-3-methoxy-2-nitrophenyl)-5-(difluoromethoxy)-1-methyl-1H-pyrazole] | 100 | 98 | 100 | 40 | – | – | – | – | – | – | – | – | – | – | – | – | – | – | – | – | growth controlling degree, ECHCO ([1]; 31 g a.i./ha): 100%; growth controlling degree, DIGSP ([2]; 31 g a.i./ha): 95%; growth controlling degree, SETVI ([3]; 31 g a.i./ha): 100%; growth controlling degree, AMARE ([4]; 31 g a.i./ha): 100%; growth controlling degree, SIDSP ([5]; 31 g a.i./ha): 100%; growth controlling degree, ABUTH ([6]; 31 g a.i./ha): 100%; growth controlling degree, ORYSA ([7]; 31 g a.i./ha): 90%; growth controlling degree, TRZAX ([8]; 31 g a.i./ha): 40%; growth controlling degree, ZEAMX ([9]; 31 g a.i./ha): 80%; growth controlling degree, GLXMA ([10]; 31 g a.i./ha): 90%
COCC(=O)Nc1c(OC)c(Cl)cc(F)c1-c1nn(C)c(OC(F)F)c1Cl [Compound 1-16] | 100 | 98 | 100 | 70 | 100 | 100 | 100 | 100 | 100 | 100 | 40 | 10 | 40 | 10 | 80 | 80 | 100 | 100 | 80 | 50 | growth controlling degree, SETVI ([3]; 63 g a.i./ha): 100%; growth controlling degree, ZEAMX ([9]; 63 g a.i./ha): 70%; growth controlling degree, GLXMA ([10]; 63 g a.i./ha): 95%
COc1c(Cl)cc(F)c(-c2nn(C)c(OC(F)F)c2Cl)c1NC(=O)c1ccc(C#N)cc1 [Compound 1-32] | 100 | 70 | 100 | 50 | 95 | 100 | 100 | 100 | 100 | 100 | 60 | 10 | 10 | 10 | 95 | 70 | 100 | 100 | 90 | 50 | growth controlling degree, AMARE ([4]; 63 g a.i./ha): 100%; growth controlling degree, ZEAMX ([9]; 63 g a.i./ha): 95%; growth controlling degree, GLXMA ([10]; 63 g a.i./ha): 80%
